From US10316319B2, “Composition for diagnosis of liver metastasis of colorectal cancer and the use thereof” (SAMSUNG LIFE PUBLIC WELFARE FOUNDATION, priority 2010, dated 2019)

Assays:
Format in all cases: cell-based
[1] = test system: HCT116 colorectal cancer cells; test: Western blot of EMT markers and CCR3 in HCT116 cells; conditions: HCT116 cells stably transfected with GFP or CCL7, with or without SB328437; Western blot (FIG. 5D)
Procedure: For the Western blot, lysates from transfected HCT116 cells were obtained using Pro-prep buffer (Intron Biotechnology, Seoul, Korea), including protease inhibitors. 20-60 μg the protein extract was resolved by SDS-PAGE and transferred to polyvinylidene fluoride (PVDF) membranes and probed with antibodies against CCR1, CCR2, CCR3, CCR5, CCL7, and β-actin, as a loading control. Secondary antibodies conjugated to horseradish peroxidase were used to image the membrane.
HCT116 colorectal cancer cells were transfected with siRNA to lower expression of the CCL7 gene, and protein expression of CCL7, E-cadherin, Snail, vimentin, twist, and β-actin, as a loading control, was determined by Western blot analysis.
HCT116 colorectal cancer cells were also treated with anti-CCL7 antibodies and the CCR3 expression in cell extracts was determined via Western blot analysis.
HCT116 colorectal cancer cells were stably transfected with GFP (control) or CCL7 and the expression of E-cadherin, α-SMA, vimentin, twist, and β-actin, as a loading control, was determined via Western blot analysis.

[2] = test system: HCT116 colorectal cancer cells; test: Transwell migration and matrigel invasion assay of HCT116 cells; conditions: GFP and CCL7 transfected HCT116 treated with SB328437 (FIG. 6C)
Procedure: To explore the role of CCL7 on migration and invasion of cancer cells, HCT116 colorectal cancer cells were transiently transfected with siRNA to the CCL7 gene or stably transfected with GFP (control) or CCL7. The cells (5×10^4) were loaded into the migration and invasion chambers in a 24-well plate in serum-free RPMI media. The lower chambers were supplemented with 10% FBS and the cells were incubated for 24 or 48 hours. The cells were stained with calcein or hematoxylin-eosin and mounted. Cell migration and invasion was quantified via fluorescence.

[3] = test system: HCT116 colorectal cancer cells; test: Western blot of ERK/JNK activation (pERK, pJNK) in HCT116 cells; conditions: stably transfected HCT116, 20 μM SB328437 (FIG. 7B)
Procedure: To explore the role of CCL7 signaling and CCR3 in the EMT-related pathway, activation of ERK and JNK was measured. HCT116 colorectal cancer cells were transiently transfected with siRNA against CCL7 or stably transfected with GFP (control) or CCL7. The stably transfected cells were incubated in the presence or absence of 20 μM SB328437. Cell lysates were obtained as above and assayed via Western blot analysis for pERK, total ERK, pJNK, total JNK, and β-actin.

Compound: COC(=O)[C@H](Cc1ccc([N+](=O)[O-])cc1)NC(=O)c1cccc2ccccc12 [SB328437]
- effect of CCL7 overexpression (reduced E-cadherin, increased α-SMA, vimentin, twist) [1]: blocked
- CCL7-induced migration and invasion of the colorectal cancer cells [2]: blocked
- phosphorylation of ERK and JNK increased by CCL7 overexpression [3]: inhibited
